Reference: ChEMBL document CHEMBL4507272 (2021)

Tests used:
[1] = target: Cyclin-dependent kinase 18 (Homo sapiens) (UniProt Q07002); conditions: Compound concentration 1000.0 nM
[2] = target: 5-hydroxytryptamine receptor 1E (Homo sapiens) (UniProt P28566); conditions: Compound concentration 10.0 uM
[3] = target: Ribosomal protein S6 kinase beta-1 (Homo sapiens) (UniProt P23443); conditions: Compound concentration 1000.0 nM
[4] = target: Serine/threonine-protein kinase SIK3 (Homo sapiens) (UniProt Q9Y2K2); conditions: Compound concentration 1000.0 nM
[5] = target: Myosin-IIIa (Homo sapiens) (UniProt Q8NEV4); conditions: Compound concentration 1000.0 nM
[6] = target: Testis-specific serine/threonine-protein kinase 3 (Homo sapiens) (UniProt Q96PN8); conditions: Compound concentration 1000.0 nM
[7] = target: Tyrosine-protein kinase ABL1 (Homo sapiens) (UniProt P00519); conditions: Compound concentration 1000.0 nM
[8] = target: Dual specificity mitogen-activated protein kinase kinase 1 (Homo sapiens) (UniProt Q02750); conditions: Compound concentration 1000.0 nM
[9] = target: Atypical kinase COQ8A, mitochondrial (Homo sapiens) (UniProt Q8NI60); conditions: Compound concentration 1000.0 nM
[10] = target: Ribosomal protein S6 kinase alpha-6 (Homo sapiens) (UniProt Q9UK32); conditions: Compound concentration 1000.0 nM
[11] = target: Ephrin type-B receptor 1 (Homo sapiens) (UniProt P54762); conditions: Compound concentration 1000.0 nM
[12] = target: STE20/SPS1-related proline-alanine-rich protein kinase (Homo sapiens) (UniProt Q9UEW8); conditions: Compound concentration 1000.0 nM
[13] = target: Serine/threonine-protein kinase ULK3 (Homo sapiens) (UniProt Q6PHR2); conditions: Compound concentration 1000.0 nM
[14] = target: cGMP-dependent protein kinase 1 (Homo sapiens) (UniProt Q13976); conditions: Compound concentration 1000.0 nM
[15] = target: Tyrosine-protein kinase Mer (Homo sapiens) (UniProt Q12866); conditions: Compound concentration 1000.0 nM
[16] = target: Cyclin-dependent kinase 2 (Homo sapiens) (UniProt P24941); conditions: Compound concentration 1000.0 nM
[17] = target: Serine/threonine-protein kinase 16 (Homo sapiens) (UniProt O75716); conditions: Compound concentration 1000.0 nM
[18] = target: Serine/threonine-protein kinase 35 (Homo sapiens) (UniProt Q8TDR2); conditions: Compound concentration 1000.0 nM
[19] = target: Activin receptor type-1-like (Homo sapiens) (UniProt P37023); conditions: Compound concentration 1000.0 nM
[20] = target: Mitogen-activated protein kinase kinase kinase kinase 2 (Homo sapiens) (UniProt Q12851); conditions: Compound concentration 1000.0 nM
[21] = tested on: Tyrosine-protein kinase ABL1 (Homo sapiens), P00519 [T315I]; conditions: Compound concentration 1000.0 nM
[22] = target: Activated CDC42 kinase 1 (Homo sapiens) (UniProt Q07912); conditions: Compound concentration 1000.0 nM
[23] = target: BDNF/NT-3 growth factors receptor (Homo sapiens) (UniProt Q16620); conditions: Compound concentration 1000.0 nM
[24] = target: Proto-oncogene tyrosine-protein kinase Src (Homo sapiens) (UniProt P12931); conditions: Compound concentration 1000.0 nM
[25] = target: Protein kinase C eta type (Homo sapiens) (UniProt P24723); conditions: Compound concentration 1000.0 nM
[26] = target: Serine/threonine-protein kinase RIO3 (Homo sapiens) (UniProt O14730); conditions: Compound concentration 1000.0 nM
[27] = target: NUAK family SNF1-like kinase 1 (Homo sapiens) (UniProt O60285); conditions: Compound concentration 1000.0 nM
[28] = target: Mitogen-activated protein kinase kinase kinase 13 (Homo sapiens) (UniProt O43283); conditions: Compound concentration 1000.0 nM
[29] = target: Homeodomain-interacting protein kinase 1 (Homo sapiens) (UniProt Q86Z02); conditions: Compound concentration 1000.0 nM
[30] = target: Serine/threonine-protein kinase pim-2 (Homo sapiens) (UniProt Q9P1W9); conditions: Compound concentration 1000.0 nM
[31] = tested on: Epidermal growth factor receptor (Homo sapiens), P00533 [G719C]; conditions: Compound concentration 1000.0 nM
[32] = target: Bone morphogenetic protein receptor type-1A (Homo sapiens) (UniProt P36894); conditions: Compound concentration 1000.0 nM
[33] = target: Tyrosine-protein kinase CSK (Homo sapiens) (UniProt P41240); conditions: Compound concentration 1000.0 nM
[34] = target: Ephrin type-A receptor 1 (Homo sapiens) (UniProt P21709); conditions: Compound concentration 1000.0 nM
[35] = target: Discoidin domain-containing receptor 2 (Homo sapiens) (UniProt Q16832); conditions: Compound concentration 1000.0 nM
[36] = target: Myosin light chain kinase, smooth muscle (Homo sapiens) (UniProt Q15746); conditions: Compound concentration 1000.0 nM
[37] = target: Serine/threonine-protein kinase PLK2 (Homo sapiens) (UniProt Q9NYY3); conditions: Compound concentration 1000.0 nM
[38] = tested on: Receptor-type tyrosine-protein kinase FLT3 (Homo sapiens), P36888 [K663Q]; conditions: Compound concentration 1000.0 nM
[39] = target: Serine/threonine-protein kinase PAK 4 (Homo sapiens) (UniProt O96013); conditions: Compound concentration 1000.0 nM
[40] = target: Mitogen-activated protein kinase kinase kinase 7 (Homo sapiens) (UniProt O43318); conditions: Compound concentration 1000.0 nM
[41] = target: Dual specificity tyrosine-phosphorylation-regulated kinase 1A (Homo sapiens) (UniProt Q13627); conditions: Compound concentration 1000.0 nM
[42] = target: Casein kinase I isoform gamma-3 (Homo sapiens) (UniProt Q9Y6M4); conditions: Compound concentration 1000.0 nM
[43] = target: Receptor-type tyrosine-protein kinase FLT3 (Homo sapiens) (UniProt P36888); conditions: Compound concentration 1000.0 nM
[44] = target: Serine/threonine-protein kinase DCLK1 (Homo sapiens) (UniProt O15075); conditions: Compound concentration 1000.0 nM
[45] = tested on: Receptor-type tyrosine-protein kinase FLT3 (Homo sapiens), P36888 [N841I]; conditions: Compound concentration 1000.0 nM

Chain of Mitogen-activated protein kinase kinase kinase 7 (Homo sapiens) (O43318 whole entry): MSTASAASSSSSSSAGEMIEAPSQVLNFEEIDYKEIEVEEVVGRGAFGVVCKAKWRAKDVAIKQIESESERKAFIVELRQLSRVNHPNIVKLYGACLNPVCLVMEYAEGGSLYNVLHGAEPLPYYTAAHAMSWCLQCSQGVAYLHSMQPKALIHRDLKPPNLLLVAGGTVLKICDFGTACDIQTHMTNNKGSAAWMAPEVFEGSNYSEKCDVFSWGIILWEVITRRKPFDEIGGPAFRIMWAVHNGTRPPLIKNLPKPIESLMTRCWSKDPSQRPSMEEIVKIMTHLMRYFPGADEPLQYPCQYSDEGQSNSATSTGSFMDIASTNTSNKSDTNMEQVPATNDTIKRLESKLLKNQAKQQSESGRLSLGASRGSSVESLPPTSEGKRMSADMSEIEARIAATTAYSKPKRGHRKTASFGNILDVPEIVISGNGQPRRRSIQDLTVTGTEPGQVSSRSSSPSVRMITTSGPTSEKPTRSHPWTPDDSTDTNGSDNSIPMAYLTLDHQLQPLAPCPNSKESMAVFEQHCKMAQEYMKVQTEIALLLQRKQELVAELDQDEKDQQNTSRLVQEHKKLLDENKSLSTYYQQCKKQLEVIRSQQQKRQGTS
Chain of Activin receptor type-1-like (Homo sapiens) (P37023 whole entry): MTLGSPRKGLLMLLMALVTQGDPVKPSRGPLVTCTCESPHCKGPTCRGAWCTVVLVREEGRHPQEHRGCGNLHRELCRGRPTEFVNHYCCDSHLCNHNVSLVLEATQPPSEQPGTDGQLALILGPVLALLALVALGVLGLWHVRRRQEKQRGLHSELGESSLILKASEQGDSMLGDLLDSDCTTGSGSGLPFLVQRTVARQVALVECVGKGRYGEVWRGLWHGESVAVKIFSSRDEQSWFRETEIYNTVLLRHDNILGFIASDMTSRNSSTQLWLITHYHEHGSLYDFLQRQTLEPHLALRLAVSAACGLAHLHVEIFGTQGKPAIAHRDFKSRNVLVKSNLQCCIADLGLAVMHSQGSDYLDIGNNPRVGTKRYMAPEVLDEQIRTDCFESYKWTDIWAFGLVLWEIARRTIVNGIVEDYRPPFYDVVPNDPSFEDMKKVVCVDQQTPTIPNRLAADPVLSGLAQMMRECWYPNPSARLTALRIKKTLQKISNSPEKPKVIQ
Chain of Casein kinase I isoform gamma-3 (Homo sapiens) (Q9Y6M4 whole entry, looked up, canonical isoform): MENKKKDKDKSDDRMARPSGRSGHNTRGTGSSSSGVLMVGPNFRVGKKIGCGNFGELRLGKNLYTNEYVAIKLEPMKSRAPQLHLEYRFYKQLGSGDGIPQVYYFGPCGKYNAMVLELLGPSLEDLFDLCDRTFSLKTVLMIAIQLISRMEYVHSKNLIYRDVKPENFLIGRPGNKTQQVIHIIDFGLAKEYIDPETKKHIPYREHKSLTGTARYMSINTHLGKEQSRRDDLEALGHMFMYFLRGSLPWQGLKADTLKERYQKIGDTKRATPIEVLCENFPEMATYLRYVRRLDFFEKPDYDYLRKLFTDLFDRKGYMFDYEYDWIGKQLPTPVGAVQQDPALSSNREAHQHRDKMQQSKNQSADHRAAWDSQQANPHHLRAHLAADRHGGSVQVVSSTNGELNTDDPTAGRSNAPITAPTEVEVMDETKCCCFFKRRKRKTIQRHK
Chain of Ephrin type-B receptor 1 (Homo sapiens) (P54762 whole entry): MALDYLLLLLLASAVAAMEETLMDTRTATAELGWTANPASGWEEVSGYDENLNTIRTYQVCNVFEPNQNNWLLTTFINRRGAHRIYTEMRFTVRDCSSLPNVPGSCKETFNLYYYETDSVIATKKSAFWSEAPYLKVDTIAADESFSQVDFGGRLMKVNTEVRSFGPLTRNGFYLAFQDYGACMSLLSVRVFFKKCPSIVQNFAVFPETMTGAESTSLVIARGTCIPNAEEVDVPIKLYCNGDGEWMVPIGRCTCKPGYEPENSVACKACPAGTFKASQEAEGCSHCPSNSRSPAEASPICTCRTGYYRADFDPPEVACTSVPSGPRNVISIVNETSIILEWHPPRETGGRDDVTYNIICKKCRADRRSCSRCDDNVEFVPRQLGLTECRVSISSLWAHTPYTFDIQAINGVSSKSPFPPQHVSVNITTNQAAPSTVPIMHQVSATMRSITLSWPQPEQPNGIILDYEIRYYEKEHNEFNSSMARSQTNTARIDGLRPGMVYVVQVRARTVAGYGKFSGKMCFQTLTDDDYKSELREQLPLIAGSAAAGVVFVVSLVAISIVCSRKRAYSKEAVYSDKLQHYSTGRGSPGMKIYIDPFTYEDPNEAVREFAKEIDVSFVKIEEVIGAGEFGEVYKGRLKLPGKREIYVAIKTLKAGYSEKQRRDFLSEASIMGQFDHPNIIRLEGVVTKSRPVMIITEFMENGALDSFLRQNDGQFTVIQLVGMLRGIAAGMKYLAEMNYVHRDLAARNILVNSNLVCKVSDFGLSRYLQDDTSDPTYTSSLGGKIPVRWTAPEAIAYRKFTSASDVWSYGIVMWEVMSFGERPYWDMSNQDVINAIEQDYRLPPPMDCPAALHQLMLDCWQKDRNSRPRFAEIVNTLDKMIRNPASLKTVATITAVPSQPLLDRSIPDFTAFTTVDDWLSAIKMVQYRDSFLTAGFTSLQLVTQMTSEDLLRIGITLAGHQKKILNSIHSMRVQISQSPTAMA
Chain of Serine/threonine-protein kinase ULK3 (Homo sapiens) (Q6PHR2 whole entry): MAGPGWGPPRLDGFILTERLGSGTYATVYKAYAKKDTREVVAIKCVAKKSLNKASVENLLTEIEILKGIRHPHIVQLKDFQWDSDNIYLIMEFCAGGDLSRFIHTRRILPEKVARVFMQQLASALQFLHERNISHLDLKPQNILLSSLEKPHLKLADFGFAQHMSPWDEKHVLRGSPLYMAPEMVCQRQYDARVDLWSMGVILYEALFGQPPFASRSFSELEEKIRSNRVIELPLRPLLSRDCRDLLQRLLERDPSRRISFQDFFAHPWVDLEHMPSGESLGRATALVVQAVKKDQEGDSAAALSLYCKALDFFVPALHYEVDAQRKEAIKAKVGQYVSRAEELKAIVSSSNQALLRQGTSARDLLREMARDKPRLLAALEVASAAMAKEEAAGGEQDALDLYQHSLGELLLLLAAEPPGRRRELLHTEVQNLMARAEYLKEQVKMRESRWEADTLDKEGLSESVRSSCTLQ
Chain of Cyclin-dependent kinase 18 (Homo sapiens) (Q07002 whole entry): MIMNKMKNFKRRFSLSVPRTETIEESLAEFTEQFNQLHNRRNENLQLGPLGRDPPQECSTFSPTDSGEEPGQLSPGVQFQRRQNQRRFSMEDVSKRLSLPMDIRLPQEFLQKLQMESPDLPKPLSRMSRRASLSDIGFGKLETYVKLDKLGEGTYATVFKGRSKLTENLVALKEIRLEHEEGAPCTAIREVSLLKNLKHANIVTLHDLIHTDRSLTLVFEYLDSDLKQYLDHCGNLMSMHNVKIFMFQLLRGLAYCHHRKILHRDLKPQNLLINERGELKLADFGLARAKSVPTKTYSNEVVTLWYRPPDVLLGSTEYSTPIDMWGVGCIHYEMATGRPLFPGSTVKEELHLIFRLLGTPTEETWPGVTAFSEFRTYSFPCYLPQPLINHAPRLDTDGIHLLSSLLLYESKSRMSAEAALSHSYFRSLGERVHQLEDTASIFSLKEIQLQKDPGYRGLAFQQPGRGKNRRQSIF
Chain of Proto-oncogene tyrosine-protein kinase Src (Homo sapiens) (P12931 2-536 limits assumed): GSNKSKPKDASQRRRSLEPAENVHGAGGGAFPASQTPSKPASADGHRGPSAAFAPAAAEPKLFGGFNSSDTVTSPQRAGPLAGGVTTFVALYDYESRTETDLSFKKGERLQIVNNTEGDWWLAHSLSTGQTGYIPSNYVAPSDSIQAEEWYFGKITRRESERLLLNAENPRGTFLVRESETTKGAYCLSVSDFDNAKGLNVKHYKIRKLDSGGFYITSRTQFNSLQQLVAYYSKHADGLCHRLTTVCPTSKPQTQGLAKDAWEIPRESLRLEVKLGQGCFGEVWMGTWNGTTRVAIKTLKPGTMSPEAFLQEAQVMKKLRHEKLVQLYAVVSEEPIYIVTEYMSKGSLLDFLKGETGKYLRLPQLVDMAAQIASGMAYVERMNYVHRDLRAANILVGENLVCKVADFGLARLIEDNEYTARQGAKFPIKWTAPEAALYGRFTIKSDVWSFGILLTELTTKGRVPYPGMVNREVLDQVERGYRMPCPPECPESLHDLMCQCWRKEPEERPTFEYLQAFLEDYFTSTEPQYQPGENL
Chain of Serine/threonine-protein kinase RIO3 (Homo sapiens) (O14730 whole entry): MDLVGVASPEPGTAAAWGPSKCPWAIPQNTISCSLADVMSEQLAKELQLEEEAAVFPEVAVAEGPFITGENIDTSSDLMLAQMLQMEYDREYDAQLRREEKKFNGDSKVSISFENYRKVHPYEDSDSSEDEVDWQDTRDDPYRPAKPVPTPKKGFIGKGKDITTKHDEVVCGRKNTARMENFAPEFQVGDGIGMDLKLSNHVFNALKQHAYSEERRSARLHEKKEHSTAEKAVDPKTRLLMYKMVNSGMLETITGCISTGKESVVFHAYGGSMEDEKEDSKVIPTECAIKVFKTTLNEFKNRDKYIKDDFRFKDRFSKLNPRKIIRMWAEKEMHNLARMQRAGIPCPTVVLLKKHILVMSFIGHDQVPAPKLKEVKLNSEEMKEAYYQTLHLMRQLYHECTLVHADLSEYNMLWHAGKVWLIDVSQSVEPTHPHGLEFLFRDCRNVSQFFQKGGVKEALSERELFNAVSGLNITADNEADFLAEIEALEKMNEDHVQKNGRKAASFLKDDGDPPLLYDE
Chain of Serine/threonine-protein kinase pim-2 (Homo sapiens) (Q9P1W9 whole entry, looked up): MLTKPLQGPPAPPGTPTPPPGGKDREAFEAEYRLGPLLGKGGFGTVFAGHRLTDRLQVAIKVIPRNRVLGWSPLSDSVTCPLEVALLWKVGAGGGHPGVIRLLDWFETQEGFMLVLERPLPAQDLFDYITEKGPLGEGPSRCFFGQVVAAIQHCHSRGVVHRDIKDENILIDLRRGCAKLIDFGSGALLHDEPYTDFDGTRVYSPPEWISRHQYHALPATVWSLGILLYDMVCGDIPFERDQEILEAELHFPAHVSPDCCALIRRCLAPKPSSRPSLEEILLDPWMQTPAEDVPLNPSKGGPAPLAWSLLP

## CC(=O)C1=C(C)N(c2cccc(C(F)(F)F)c2)C(=O)N[C@@H]1c1ccc(C#N)nc1 [BAY-678]
[1]
  residual activity: 85.1%
[2]
  inhibition: 7.74%
[3]
  residual activity: 93.8%
[4]
  residual activity: 100%
[5]
  residual activity: 85.1%
[6]
  residual activity: 96.2%
[7]
  residual activity: 96.5%
[8]
  residual activity: 93.3%
[9]
  residual activity: 100%
[10]
  residual activity: 87.7%
[11]
  residual activity: 100%
[12]
  residual activity: 90.8%
[13]
  residual activity: 100%
[14]
  residual activity: 45.5%
[15]
  residual activity: 100%
[16]
  residual activity: 100%
[17]
  residual activity: 84.6%
[18]
  residual activity: 85.9%
[19]
  residual activity: 71.7%
[20]
  residual activity: 100%
[21]
  residual activity: 96.9%
[22]
  residual activity: 78.6%
[23]
  residual activity: 98.1%
[24]
  residual activity: 95.9%
[25]
  residual activity: 91.3%
[26]
  residual activity: 100%
[27]
  residual activity: 93.2%
[28]
  residual activity: 92.4%
[29]
  residual activity: 72.6%
[30]
  residual activity: 98.2%
[31]
  residual activity: 100%
[32]
  residual activity: 100%
[33]
  residual activity: 90%
[34]
  residual activity: 100%
[35]
  residual activity: 87.6%
[36]
  residual activity: 83.8%
[37]
  residual activity: 97.8%
[38]
  residual activity: 100%
[39]
  residual activity: 97.9%
[40]
  residual activity: 100%
[41]
  residual activity: 100%
[42]
  residual activity: 100%
[43]
  residual activity: 100%
[44]
  residual activity: 85.1%
[45]
  residual activity: 73.8%
